Experiments:
[1] = Apparent pKa of LNP formulations (TNS fluorescence assay); conditions: LNP cationic lipid/DSPC/cholesterol/DMG-PEG 50/10/38.5/1.5 mol %
[2] = system: human erythropoietin (hEPO) mRNA; test: Animal study: hEPO expression after tail vein injection of LNPs encapsulating hEPO mRNA (serum ELISA); assay type: in vivo; conditions: hEPO level, female ICR mice, 0.5 mg/kg, 6 hours post administration; for Expression at 6 h (μg/ml): class symbols, Table 3; for Expression at 6 h: Table 2
Procedure, shortened: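 Female ICR mice (6-8 weeks) received LNPs carrying hEPO mRNA by tail vein injection at 0.5 mg/kg, with MC3 LNPs dosed the same way as positive control. Blood was drawn at set times (e.g., 6 h) and serum separated. hEPO was quantified by ELISA and reported as μg/ml.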

[3] = Lipid nanoparticle size by dynamic light scattering (Malvern Zetasizer Nano ZS); assay type: physicochemical; conditions: LNP: cationic lipid/DSPC/cholesterol/PEG-lipid 50:10:38.5:1.5, hEPO mRNA
Procedure, shortened: (§1)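 LNPs of cationic lipid:DSPC:cholesterol:PEG-lipid (50:10:38.5:1.5 molar) with mRNA in 10–50 mM citrate pH 4, microfluidic mixing at 1:3 ethanol:aqueous, lipid:mRNA weight ratio ~10:1–30:1, dialysed into DPBS and 0.2 μm filtered. Size by DLS, 173° backscatter; encapsulation efficiency by Ribogreen assay.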

[4] = Encapsulation efficiency of lipid nanoparticles (Quant-it Ribogreen RNA quantification assay); assay type: physicochemical; conditions: LNP encapsulating hEPO mRNA
Procedure, shortened: as §1

## CCCCCCCCC(CCCCCC)COC(=O)CCCCCC(CCCCCC(=O)OCC(CCCCCC)CCCCCCCC)CN(CCO)C1CCC1 (centres unmarked) [Compound 15]
[1]; Table 3
  Apparant Pka: 9.21
[2]
  Expression at 6 h (μg/ml): D (<0.1)
[3]; Table 3
  polydispersity: 0.313
  size nm: 51.17 nm
[4]; Table 3
  Encapsulation Efficiency: 89.8%

## CCCCCCCCC(CCCCCC)COC(=O)CCCCCN(CCCCCC(=O)OCC(CCCCCC)CCCCCCCC)CCN(CCCO)C1CCC1 (centres unmarked) [Compound 28]
[1]; Table 3
  Apparant Pka: 6.529
[2]
  Expression at 6 h (μg/ml): A (≥2)
[3]; Table 3
  polydispersity: 0.002
  size nm: 79.82 nm
[4]; Table 3
  Encapsulation Efficiency: 96.5%

## CCCCCCC(CCCCCC)CC(=O)NCCCCCN(CCCCCOC(=O)CC(CCCCCC)CCCCCC)CCN(CCO)C1CCCCCC1 [Compound 142]
[1]; Table 3
  Apparant Pka: 6.678
[2]
  Expression at 6 h (μg/ml): A (≥2)
[3]; Table 3
  polydispersity: 0.027
  size nm: 81.13 nm
[4]; Table 3
  Encapsulation Efficiency: 85.3%

## CCCCCCCCC(CCCCCCCC)COC(=O)CCCCCN(CCCCCC(=O)OCC(CCCCCCCC)CCCCCCCC)CCN(CCO)C1CCC1 [Compound 50]
[1]; Table 3
  Apparant Pka: 6.143
[2]
  Expression at 6 h (μg/ml): A (≥2)
[3]; Table 3
  polydispersity: 0.085
  size nm: 67.68 nm
[4]; Table 3
  Encapsulation Efficiency: 94.90%

## CCCCCCCCC(CCCCCC)COC(=O)CCCCCN(CCCCCC(=O)OCC(CCCCCC)CCCCCCCC)CCN(CCO)C1CCCC1 (centres unmarked) [Compound 5]
[1]; Table 2
  Apparant Pka: 6.24
[2]
  Expression at 6 h: 0.25 µg/mL
[3]; Table 2
  polydispersity: 0.029
  size nm: 54.0 nm
[4]; Table 2
  Encapsulation Efficiency: 96.2%

## CCCCCCCCC(CCCCCCCC)COC(=O)CCCCCN(CCCCCC(=O)OCC(CCCCCCCC)CCCCCCCC)CCN(CCCCC)C1CCC(O)CC1 (centres unmarked) [Compound 74]
[1]; Table 3
  Apparant Pka: 6.2
[2]
  Expression at 6 h (μg/ml): B (≥1 and <2)
[3]; Table 3
  polydispersity: 0.076
  size nm: 54.58 nm
[4]; Table 3
  Encapsulation Efficiency: 93.2%

## CCCCCCCCC(CCCCCC)COC(=O)CCCCCC(CCCCCC(=O)OCC(CCCCCC)CCCCCCCC)CCCN(C)CCO (centres unmarked) [Compound 18]
[1]; Table 3
  Apparant Pka: 6.327
[2]
  Expression at 6 h (μg/ml): C (≥0.1 and <1)
[3]; Table 3
  polydispersity: 0.15
  size nm: 71.85 nm
[4]; Table 3
  Encapsulation Efficiency: 100.16%

## CCCCCCCCC(CCCCCC)CC(=O)NCCCCCN(CCCCCOC(=O)CC(CCCCCC)CCCCCCCC)CCN(CCO)C1CCC1 (centres unmarked) [Compound 108]
[1]; Table 3
  Apparant Pka: 6.711
[2]
  Expression at 6 h (μg/ml): A (≥2)
[3]; Table 3
  polydispersity: 0.064
  size nm: 80.78 nm
[4]; Table 3
  Encapsulation Efficiency: 95.6%

## CCCCCCCCC(CCCCCC)COC(=O)CCCCCN(CCCCCC(=O)OCC(CCCCCC)CCCCCCCC)CCN(C(=O)CCO)C1CCC1 (centres unmarked) [Compound 8]
[1]; Table 2
  Apparant Pka: 5.84
[2]
  Expression at 6 h: 0.00 µg/mL
[3]; Table 2
  polydispersity: 0.065
  size nm: 54.7 nm
[4]; Table 2
  Encapsulation Efficiency: 96.9%

## CCCCCCCCC(CCCCCC)CC(=O)NCCCCCN(CCCCCNC(=O)CC(CCCCCC)CCCCCCCC)CCN(CCO)C1CCC1 (centres unmarked) [Compound 105]
[1]; Table 3
  Apparant Pka: 6.698
[2]
  Expression at 6 h (μg/ml): A (≥2)
[3]; Table 3
  polydispersity: 0.042
  size nm: 92.4 nm
[4]; Table 3
  Encapsulation Efficiency: 93.3%

## CCCCCCCCC(CCCCCCCC)COC(=O)CCOCCN(CCOCCC(=O)OCC(CCCCCCCC)CCCCCCCC)CCN(CCO)C1CCCCC1 [Compound 104]
[1]; Table 3
  Apparant Pka: 6.184
[2]
  Expression at 6 h (μg/ml): A (≥2)
[3]; Table 3
  polydispersity: 0.022
  size nm: 70.93 nm
[4]; Table 3
  Encapsulation Efficiency: 89.96%

## CCCCCCCCC(CCCCCCCC)CC(=O)NCCCCCN(CCCCCOC(=O)CC(CCCCCCCC)CCCCCCCC)CCN(CCO)C1CCCCCC1 [Compound 145]
[1]; Table 3
  Apparant Pka: 6.634
[2]
  Expression at 6 h (μg/ml): A (≥2)
[3]; Table 3
  polydispersity: 0.04
  size nm: 61.5 nm
[4]; Table 3
  Encapsulation Efficiency: 93.1%

## CCCCCCCCC(CCCCCC)COC(=O)CCCCCN(CCCCCC(=O)OCC(CCCCCC)CCCCCCCC)CCNCCO (centres unmarked) [Compound A]
[1]; Table 2
  Apparant Pka: 6.96
[2]
  Expression at 6 h: 0.01 µg/mL
[3]; Table 2
  polydispersity: 0.108
  size nm: 58.5 nm
[4]; Table 2
  Encapsulation Efficiency: 100.0%

## CCCCCCCCC(CCCCCC)COC(=O)CCCCCN(CCCCCC(=O)OCC(CCCCCC)CCCCCCCC)C(=O)CN(CCO)C1CCC1 (centres unmarked) [Compound 11]
[1]; Table 3
  Apparant Pka: 5.662
[2]
  Expression at 6 h (μg/ml): D (<0.1)
[3]; Table 3
  polydispersity: 0.109
  size nm: 67.23 nm
[4]; Table 3
  Encapsulation Efficiency: 90.9%

## CCCCCCCCC(CCCCCC)CC(=O)COCCCCN(CCCCCOC(=O)CC(CCCCCC)CCCCCCCC)CCN(CCO)C1CC1 (centres unmarked) [Compound 24]
[1]; Table 3
  Apparant Pka: 6.087
[2]
  Expression at 6 h (μg/ml): C (≥0.1 and <1)
[3]; Table 3
  polydispersity: 0.077
  size nm: 64.96 nm
[4]; Table 3
  Encapsulation Efficiency: 95.4%

## CCCCCCCCC(CCCCCC)COC(=O)CCCCCN(CCCCCC(=O)OCC(CCCCCC)CCCCCCCC)CCN(C)C1CC(O)C1 (centres unmarked) [Compound 59]
[1]; Table 3
  Apparant Pka: 6.682
[2]
  Expression at 6 h (μg/ml): B (≥1 and <2)
[3]; Table 3
  polydispersity: 0.008
  size nm: 93.24 nm
[4]; Table 3
  Encapsulation Efficiency: 97.7%

## CCCCCCCCC(CCCCCC)COC(=O)CCCCCN(CCCCCC(=O)OCC(CCCCCC)CCCCCCCC)CCN(CCO)C1CCCCC1 (centres unmarked) [Compound 2]
[1]; Table 2
  Apparant Pka: 6.27
[2]
  Expression at 6 h: 6.16 µg/mL
[3]; Table 2
  polydispersity: 0.065
  size nm: 75.3 nm
[4]; Table 2
  Encapsulation Efficiency: 96.8%

## CCCCCCCCC(CCCCCC)COC(=O)CCCCCN(CCCCCC(=O)OCC(CCCCCC)CCCCCCCC)CCN(CC(C)O)C1CCC1 (centres unmarked) [Compound 32]
[1]; Table 3
  Apparant Pka: 5.941
[2]
  Expression at 6 h (μg/ml): C (≥0.1 and <1)
[3]; Table 3
  polydispersity: 0.039
  size nm: 77.76 nm
[4]; Table 3
  Encapsulation Efficiency: 94.3%

## CCCCCCCCCCCOC(=O)CCCCCN(CCCCCC(=O)NCC(CCCCCCCC)CCCCCCCC)CCN(CCO)C1CCC1 [Compound 146]
[1]; Table 3
  Apparant Pka: 7.496
[2]
  Expression at 6 h (μg/ml): B (≥1 and <2)
[3]; Table 3
  polydispersity: 0.052
  size nm: 66.27 nm
[4]; Table 3
  Encapsulation Efficiency: 94.6%
